Data published in the NIST ThermoML archive (doi:10.1016/j.tca.2015.01.022).

Conditions: for molar entropy: 101.33 kPa, Small (less than 1 g) adiabatic calorimetry

CCCCn1cc[n+](C)c1.F[B-](F)(F)F [1-butyl-3-methylimidazolium tetrafluoroborate]
Conditions	Glass transition temperature [°C]
Glass, Adiabatic calorimetry	-92

CCOS(=O)(=O)[O-].CCn1cc[n+](C)c1 [1-ethyl-3-methylimidazolium ethyl sulfate]
Conditions	Glass transition temperature [°C]
Glass, Adiabatic calorimetry	-88

CCCCCCCC[n+]1ccn(C)c1.F[B-](F)(F)F [1-methyl-3-octylimidazolium tetrafluoroborate]
Conditions	Glass transition temperature [°C]	Triple point temperature [K]	molar entropy [J/K/mol]
0 K, Glass	–	–	13.9
5 K, Crystal	–	–	0.507
5 K, Glass	–	–	14.5
10 K, Crystal	–	–	3.61
10 K, Glass	–	–	18
15 K, Crystal	–	–	9.69
15 K, Glass	–	–	24.5
20 K, Crystal	–	–	17.96
20 K, Glass	–	–	33.1
25 K, Crystal	–	–	27.66
25 K, Glass	–	–	43.1
30 K, Crystal	–	–	38.29
30 K, Glass	–	–	54.1
35 K, Crystal	–	–	49.44
35 K, Glass	–	–	65.5
40 K, Crystal	–	–	60.82
40 K, Glass	–	–	77.1
45 K, Crystal	–	–	72.28
45 K, Glass	–	–	88.7
50 K, Crystal	–	–	83.73
50 K, Glass	–	–	100.3
60 K, Crystal	–	–	106.3
60 K, Glass	–	–	123.1
70 K, Crystal	–	–	128.1
70 K, Glass	–	–	145.2
80 K, Crystal	–	–	149.2
80 K, Glass	–	–	166.7
90 K, Crystal	–	–	169.5
90 K, Glass	–	–	187.6
100 K, Crystal	–	–	189.1
100 K, Glass	–	–	207.9
110 K, Crystal	–	–	208
110 K, Glass	–	–	227.7
120 K, Crystal	–	–	226.3
120 K, Glass	–	–	247
130 K, Crystal	–	–	244.2
130 K, Glass	–	–	265.9
140 K, Crystal	–	–	261.5
140 K, Glass	–	–	284.4
150 K, Crystal	–	–	278.4
150 K, Glass	–	–	302.8
160 K, Crystal	–	–	295
160 K, Glass	–	–	320.9
170 K, Crystal	–	–	311.3
170 K, Glass	–	–	338.9
180 K, Crystal	–	–	327.5
180 K, Glass	–	–	356.9
190 K, Crystal	–	–	343.6
190 K, Glass	–	–	375.5
200 K, Crystal	–	–	359.6
200 K, Liquid	–	–	398.7
210 K, Crystal	–	–	375.6
210 K, Liquid	–	–	421.4
220 K, Crystal	–	–	391.5
220 K, Liquid	–	–	442.9
230 K, Crystal	–	–	407.4
230 K, Liquid	–	–	463.6
240 K, Crystal	–	–	423.2
240 K, Liquid	–	–	483.5
245.81 K, Crystal	–	–	432.4
245.81 K, Liquid	–	–	494.7
250 K, Liquid	–	–	502.7
260 K, Liquid	–	–	521.3
270 K, Liquid	–	–	539.4
280 K, Liquid	–	–	557
290 K, Liquid	–	–	574.3
298.15 K, Liquid	–	–	588
300 K, Liquid	–	–	591.1
310 K, Liquid	–	–	607.5
320 K, Liquid	–	–	623.7
330 K, Liquid	–	–	639.5
340 K, Liquid	–	–	655
350 K, Liquid	–	–	670.3
360 K, Liquid	–	–	685.3
370 K, Liquid	–	–	700.1
Crystal, Adiabatic calorimetry	–	245.81	–
Glass, Adiabatic calorimetry	-83	–	–
